Patent US12247004B2, “2-amino-N-(amino-oxo-aryl-lambda6-sulfanylidene)acetamide compounds and their therapeutic use” (Oxford Drug Design Limited, priority 2019, dated 2025)
In brackets after ≈: the same amount, converted by molar mass. Read-outs that look alike come from different tables or passages of the source.

Columns and labels:
[1] = molecular target: Isoleucyl-tRNA synthetase (IleRS) (Escherichia coli (strain K12), UniProt P00956); test: Isoleucyl-tRNA synthetase enzyme inhibition (AMP-Glo; single point % inhibition at 100 μM and IC50); assay type: biochemical; details: E. coli IleRS; read-out: Enzyme Inhibition - IC50, E. coli IleRS
From the text: Study 1—Enzyme Inhibition
The aminoacylation reaction catalyzed by aminoacyl-tRNA synthetases (aaRS) takes place in two steps. In the first step, aaRS activates its cognate amino acid with ATP; and in the second step the activated amino acid is loaded to its corresponding tRNA. This reaction can be summarized as follows: aaRS+aa+ATP=aaRS-aa-AMP+PPi aaRS-aa-AMP+tRNA=aa-tRNA+AMP+aaRS […]
wherein: aaRS, aminoacyl-tRNA synthetase; aa, amino acid; aaRS-aa-AMP, enzyme-bound to aminoacyl-adenylate; AMP, adenosine monophosphate; aa-tRNA, aminoacyl-tRNA, PPi, inorganic pyrophosphate.
Isoleucyl-tRNA Synthetase a. Single Point Percentage Inhibition
The activity of the pathogenic aaRSs was monitored by measuring AMP production using the commercial kit AMP-Glo (Promega, Madison, USA).
Ligand stock solutions were prepared in 100% DMSO at 10 mM concentration. An assay buffer consisting of 100 mM Tris HCl pH 7.6, 40 mM MgCl, 20 mM KCl and 150 mM NaCl was prepared in dH2O. An enzyme solution containing 51.77 μM IleRS was prepared in assay buffer to provide 30 nM final assay concentration and 75 nM reservoir concentration for a 1:2.5 dilution in the assay. A substrate solution was also prepared in assay buffer with 50 mM L-isoleucine, 10 mM ATP and 100 mg/mL tRNA. A final assay concentration of 500 μM L-isoleucine, 5 μM ATP and 1 mg/mL tRNA and reservoir concentration of 833.33 μM L-isoleucine, 8.33 μM ATP and 1.67 mg/mL tRNA was used for a 1:1.66 dilution in assay.
Enzyme percentage inhibition values were recorded in triplicate at a single point concentration of 100 μM.
Using the same enzymatic assay in a 384-well plate format, ten point concentration response curves were generated for each compound using a top concentration of 100 μM. The known inhibitor, IleAMS was used as a positive control for the IleRS assay. 100% DMSO was used as a negative control. The IC50 was calculated based on non-linear regression analysis.

[2] = system: bacteria (ATCC reference strains); test: Antibacterial activity, MIC by broth micro-dilution (CLSI)
[3] = molecular target: Leucyl-tRNA synthetase (LeuRS) (Escherichia coli (strain K12), UniProt P07813); test: Leucyl-tRNA synthetase enzyme inhibition (AMP-Glo; single point % inhibition at 100 μM and IC50); assay type: biochemical
[4] = Human cell viability / cytotoxicity (CellTiter-Glo, 24 hours); assay type: cell-based; details: human, HepG2 cells (ATCC HB-8065); HepG2 ATCC HB-8065, 24 hours; read-out: Cytotoxicity in HepG2 ATCC HB-8065 Cell Line, IC50
Protocol: Study 3—Human Cell Viability
Compounds were assessed for potential non-specific cytotoxic effects against a human hepatic cell line (HepG2 ATCC HB-8065). 96-well plates were seeded with HepG2 cells in concentration of 15,000 cells per well in 100 μL of MEM growth media completed with 1% NEAA and 1% sodium pyruvate. Border wells were filled with 100 μL of sterile PBS. Two days upon cells incubation, the compounds were added. Compound dilutions were prepared in 96-well V-bottom plate in pure DMSO. Growth media from 5 plates were aspirated and replaced with 98.7 μL of fresh growth media. 1.28 μL of compounds prepared in V-bottom plates were transferred with multichannel pipette into test plates (78.1× dilution). Final DMSO concentration was 1.28% per well. In control wells, 1.28 μL of DMSO was added in 98.7 μL of media. Compounds were tested in duplicates. Cells were incubated with compounds for 24 hours when cell viability was assessed by measuring ATP levels. ATP levels were measured by adding 50 μL of CellTiter-Glo reagent to each well and after 5 minutes of incubation luminescence was measured with SpectraMax i3. The potential effect of tested compounds on cell viability was determined by comparing the signal obtained in presence of different concentrations of the compounds with those obtained in the presence of DMSO only. The potential effects were then calculated and presented as IC50 values (μg/mL).

[5] = Acinetobacter baumannii, read-out: Antibacterial Activity (MIC), E = A. baumannii B1931
[6] = Enterobacter cloacae, read-out: Antibacterial Activity (MIC), B = Enterobacter cloacae B1966
[7] = Escherichia coli, ATCC25922, read-out: Antibacterial Activity (MIC), A = E. coli ATCC 25922
[8] = Haemophilus influenzae, ATCC49247, read-out: Antibacterial Activity (MIC), F = H. influenzae ATCC 49247
[9] = Klebsiella pneumoniae, ATCC700603, read-out: Antibacterial Activity (MIC), C = K. pneumoniae ATCC 700603
[10] = Pseudomonas aeruginosa, ATCC27853, read-out: Antibacterial Activity (MIC), D = P. aeruginosa ATCC 27853
[11] = Escherichia coli, BAA2469, read-out: Antibacterial Activity (MIC), G = E. coli BAA-2469

Isoleucyl-tRNA synthetase (IleRS), sequence (P00956 whole entry, looked up): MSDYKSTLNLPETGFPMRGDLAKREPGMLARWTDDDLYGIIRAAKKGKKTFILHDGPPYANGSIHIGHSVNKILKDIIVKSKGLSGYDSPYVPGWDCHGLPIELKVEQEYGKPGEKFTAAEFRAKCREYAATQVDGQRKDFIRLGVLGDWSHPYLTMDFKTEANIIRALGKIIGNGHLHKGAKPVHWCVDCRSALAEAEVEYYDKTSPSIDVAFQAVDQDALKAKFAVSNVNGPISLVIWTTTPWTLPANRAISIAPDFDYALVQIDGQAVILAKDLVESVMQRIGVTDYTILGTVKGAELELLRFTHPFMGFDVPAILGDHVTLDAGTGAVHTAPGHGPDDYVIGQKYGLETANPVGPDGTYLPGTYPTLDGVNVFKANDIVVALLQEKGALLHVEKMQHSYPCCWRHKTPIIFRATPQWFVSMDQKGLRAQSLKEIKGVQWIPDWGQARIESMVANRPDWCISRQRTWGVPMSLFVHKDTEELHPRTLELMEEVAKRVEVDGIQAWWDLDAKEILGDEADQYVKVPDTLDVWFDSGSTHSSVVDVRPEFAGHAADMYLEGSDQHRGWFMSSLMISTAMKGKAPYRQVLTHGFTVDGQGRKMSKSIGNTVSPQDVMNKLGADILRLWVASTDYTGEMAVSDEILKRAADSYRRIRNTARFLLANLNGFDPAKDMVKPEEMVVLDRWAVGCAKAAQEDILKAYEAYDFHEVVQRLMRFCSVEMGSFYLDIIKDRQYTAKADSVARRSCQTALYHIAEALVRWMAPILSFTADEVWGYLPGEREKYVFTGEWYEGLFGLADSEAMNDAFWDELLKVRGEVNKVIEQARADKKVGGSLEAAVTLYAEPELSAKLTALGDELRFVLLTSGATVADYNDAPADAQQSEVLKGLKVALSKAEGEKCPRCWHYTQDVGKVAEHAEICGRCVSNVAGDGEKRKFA
Leucyl-tRNA synthetase (LeuRS), sequence (P07813 whole entry, looked up): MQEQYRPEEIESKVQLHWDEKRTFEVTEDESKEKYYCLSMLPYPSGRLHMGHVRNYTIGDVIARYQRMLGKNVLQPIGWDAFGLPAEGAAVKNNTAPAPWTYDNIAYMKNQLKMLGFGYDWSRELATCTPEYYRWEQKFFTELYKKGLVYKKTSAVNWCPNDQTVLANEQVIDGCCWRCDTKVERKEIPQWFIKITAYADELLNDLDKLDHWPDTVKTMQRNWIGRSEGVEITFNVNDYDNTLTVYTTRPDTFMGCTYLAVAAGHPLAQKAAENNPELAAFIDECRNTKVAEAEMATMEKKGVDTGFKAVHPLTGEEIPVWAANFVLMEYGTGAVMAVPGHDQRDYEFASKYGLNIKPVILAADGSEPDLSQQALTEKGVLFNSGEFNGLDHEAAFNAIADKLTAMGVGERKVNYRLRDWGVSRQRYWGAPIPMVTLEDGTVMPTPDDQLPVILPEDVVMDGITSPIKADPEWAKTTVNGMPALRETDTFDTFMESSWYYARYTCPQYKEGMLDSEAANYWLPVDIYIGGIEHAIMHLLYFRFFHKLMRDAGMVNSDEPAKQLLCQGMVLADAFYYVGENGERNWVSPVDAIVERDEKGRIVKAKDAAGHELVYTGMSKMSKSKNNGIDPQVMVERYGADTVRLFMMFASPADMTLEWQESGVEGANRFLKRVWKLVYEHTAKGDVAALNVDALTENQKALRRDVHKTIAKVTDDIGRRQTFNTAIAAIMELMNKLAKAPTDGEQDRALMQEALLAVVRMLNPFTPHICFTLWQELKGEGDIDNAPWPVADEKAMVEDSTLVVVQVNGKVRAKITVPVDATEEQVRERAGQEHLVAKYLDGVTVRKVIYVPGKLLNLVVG

CC[C@H](C)[C@H](N)C(=O)N=[S@](N)(=O)c1cccs1 (single isomer, unassigned) [ANASIA-028-1]
IC50 [1]: 46.5 µM

CC[C@H](C)[C@H](N)C(=O)N=[S@](N)(=O)c1ccc(Cl)s1 [ANASIA-029-1]
IC50 [1]: 67.4 µM

CC[C@H](C)[C@H](N)C(=O)N=[S@](N)(=O)c1cccc(-c2ccccc2)c1 [ANASIA-032-1]
IC50 [1]: 50.8 µM

CC[C@H](C)[C@H](N)C(=O)N=[S@](N)(=O)c1cccc(Cl)c1 [ANASIA-033-1]
IC50 [1]: 67.6 µM

CC[C@H](C)[C@H](N)C(=O)N=[S@@](N)(=O)c1ccc(Cl)c(Cl)c1 [ANASIA-036-2]
IC50 [1]: 30.6 µM

CC[C@H](C)[C@H](N)C(=O)N=[S@@](N)(=O)c1cccc(Oc2ccc(Cl)cc2)c1 [ANASIA-052-2]
IC50 [1]: 40.1 µM

CC[C@H](C)[C@H](N)C(=O)N=[S@@](N)(=O)c1ccc2c(c1)CCO2 [ANASIA-053-1]
IC50 [1]: 20.2 µM

CC[C@H](C)[C@H](N)C(=O)N=[S@](N)(=O)c1ccc2cccnc2c1 [ANASIA-054-1]
IC50 [1]: 83.7 µM

CC[C@H](C)[C@H](N)C(=O)N=[S@@](N)(=O)c1ccc2cccnc2c1 [ANASIA-054-2]
IC50 [1]: 19.9 µM

CC[C@H](C)[C@H](N)C(=O)N=[S@](N)(=O)c1ccc(OC)cc1 [ANASIA-055-1]
IC50 [1]: 35.1 µM

CC[C@H](C)[C@H](N)C(=O)N=[S@](N)(=O)c1cccc(C(C)(C)C)c1 [ANASIA-056-1]
IC50 [1]: 84 µM

CC[C@H](C)[C@H](N)C(=O)N=[S@](N)(=O)c1csc2ccccc12 [ANASIA-057-1]
IC50 [1]: 27.5 µM

CC[C@H](C)[C@H](N)C(=O)N=S(N)(=O)c1nc(Cl)cs1 (some centres unmarked) [ANASIA-058]
IC50 [1]: 58.6 µM

CC[C@H](C)[C@H](N)C(=O)N=[S@@](N)(=O)c1cccc(OC(F)F)c1 [ANASIA-069-2]
IC50 [1]: 13.7 µM

CC[C@H](C)[C@H](N)C(=O)N=[S@](N)(=O)c1cccc(C(F)(F)F)c1 [ANASIA-072-1]
IC50 [1]: 53.1 µM

CC[C@H](C)[C@H](N)C(=O)N=[S@](N)(=O)c1cccc(OC(F)(F)F)c1 [ANASIA-077-1]
IC50 [1]: 40.8 µM

CC[C@H](C)[C@H](N)C(=O)N=[S@](N)(=O)c1ccsc1Cl [ANASIA-078-1]
IC50 [1]: 16.4 µM

CC[C@H](C)[C@H](N)C(=O)N=[S@@](N)(=O)c1ccsc1Cl [ANASIA-078-2]
IC50 [1]: 0.599 µM

CC[C@H](C)[C@H](N)C(=O)N=[S@](N)(=O)c1cscc1C [ANASIA-079-1]
IC50 [1]: 19.8 µM

CC[C@H](C)[C@H](N)C(=O)N=[S@](N)(=O)c1csc(Cl)c1 [ANASIA-080-1]
IC50 [1]: 1.14 µM

CC[C@H](C)[C@H](N)C(=O)N=[S@@](N)(=O)c1csc(Cl)c1 [ANASIA-080-2]
IC50 [1]: 41.3 µM

CC(C)C[C@H](N)C(=O)N=[S@@](N)(=O)c1ccccc1F.Cl [ANASIA-087-1]
MIC [2, 5]: > 64 µg/mL
MIC [2, 6]: 64 µg/mL
MIC [2, 7]: 11.3 µg/mL
MIC [2, 8]: 32 µg/mL
MIC [2, 9]: > 64 µg/mL
MIC [2, 10]: > 64 µg/mL
IC50 [3]: 0.289 µM
IC50 at 24 h [4]: > 64 µg/mL

CC(C)C[C@H](N)C(=O)N=[S@](N)(=O)c1cccc(OC(F)F)c1.Cl [ANASIA-088-1]
MIC [2, 5]: > 64 µg/mL
MIC [2, 6]: 64 µg/mL
MIC [2, 7]: 4 µg/mL
MIC [2, 11]: 32 µg/mL
MIC [2, 8]: 4 µg/mL
MIC [2, 9]: > 256 µg/mL
MIC [2, 10]: > 64 µg/mL
IC50 [3]: 0.0753 µM
IC50 at 24 h [4]: > 64 µg/mL

CC(C)C[C@H](N)C(=O)N=[S@](N)(=O)c1ccsc1Cl.Cl [ANASIA-092-1]
MIC [2, 5]: 64 µg/mL
MIC [2, 7]: 2 µg/mL
MIC [2, 11]: 11.3 µg/mL
MIC [2, 8]: 2 µg/mL
MIC [2, 9]: 64 µg/mL
MIC [2, 10]: > 64 µg/mL
IC50 [3]: 0.0484 µM
IC50 at 24 h [4]: > 64 µg/mL

CC(C)C[C@H](N)C(=O)N=S(N)(=O)c1csc2ccsc12 (some centres unmarked) [ANASIA-100]
MIC [2, 5]: 32 µg/mL (≈ 96.5 µM)
MIC [2, 7]: 0.5 µg/mL (≈ 1.51 µM)
MIC [2, 11]: 4 µg/mL (≈ 12.1 µM)
MIC [2, 8]: 0.5 µg/mL (≈ 1.51 µM)
MIC [2, 9]: 64 µg/mL (≈ 193 µM)
MIC [2, 10]: > 64 µg/mL
IC50 ([3]; E. coli LeuRS, read-out: Enzyme Inhibition - IC50, E. coli LeuRS): 0.0328 µM
IC50 at 24 h [4]: > 64 µg/mL

COc1ccsc1[S@@](N)(=O)=NC(=O)[C@@H](N)CC(C)C.Cl [ANASIA-108-1]
MIC [2, 5]: > 64 µg/mL
MIC [2, 7]: 8 µg/mL
MIC [2, 11]: 16 µg/mL
MIC [2, 8]: 32 µg/mL
MIC [2, 9]: 64 µg/mL
MIC [2, 10]: 64 µg/mL
IC50 [3]: 0.127 µM
IC50 at 24 h [4]: > 64 µg/mL
